For the assay, the target named is human APJ receptor (Homo sapiens (Human), UniProt P35414). Briefly: biochemical. Format: biochemical. Conditions: [35S]GTPγS binding, CHO membranes expressing human APJ receptor; read-out: Activity hAPJ SPA EC50 IP. As to the method: The human APJ receptor was cloned by polymerase chain reaction and the gene encoding the receptor was subcloned in pFLAG-CMV™-3 expression vector (Sigma, Saint Louis, Mo. USA) in-house at Amgen. A GTPγS binding assay was performed on membranes prepared from CHO cells stably expressing human APJ receptor. The optimum experimental conditions for the concentrations of GDP, MgCl2, and NaCl in the assay buffer were initially determined. […] Incubation was at RT for 90 min and the microplate was read using a ViewLux™ ultra HTS Microplate Imager (PerkinElmer, Inc.).
human APJ receptor, sequence (P35414 whole entry): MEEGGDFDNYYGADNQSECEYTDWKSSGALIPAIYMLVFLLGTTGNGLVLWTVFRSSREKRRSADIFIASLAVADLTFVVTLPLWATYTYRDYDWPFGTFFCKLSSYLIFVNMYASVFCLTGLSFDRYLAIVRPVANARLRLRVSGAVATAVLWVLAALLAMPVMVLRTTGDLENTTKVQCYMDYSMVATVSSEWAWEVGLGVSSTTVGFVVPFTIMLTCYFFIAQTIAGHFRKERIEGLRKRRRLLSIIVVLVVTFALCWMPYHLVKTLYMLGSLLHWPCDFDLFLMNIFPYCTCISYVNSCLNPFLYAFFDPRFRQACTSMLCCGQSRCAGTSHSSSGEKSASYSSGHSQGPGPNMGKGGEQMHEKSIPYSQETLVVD
A general note: Binding of GTPγS marks nucleotide exchange on a G protein.
Take `CCc1nc(-c2nnc(NS(=O)(=O)CCc3ccc(F)cc3C#N)n2-c2c(OC)cccc2OC)cs1` [Example 154.0, 2-(2-cyano-4-fluorophenyl)-N-(4-(2,6-dimethoxyphenyl)-5-(2-ethylthiazol-4-yl)-4H-1,2,4-triazol-3-yl)ethanesulfonamide]: the EC50 was found to be 62 nM.
For the compound `CCO[C@H](c1ncc(Cl)cn1)[C@H](C)S(=O)(=O)Nc1nnc(-c2ccn(CC)n2)n1-c1c(OC)cccc1OC` [Example 394.0, (1R,2S)-1-(5-chloropyrimidin-2-yl)-N-(4-(2,6-dimethoxyphenyl)-5-(1-ethyl-1H-pyrazol-3-yl)-4H-1,2,4-triazol-3-yl)-1-ethoxypropane-2-sulfonamide], the EC50 was found to be 0.54 nM.
On to `COc1cccc(OC)c1-n1c(NS(=O)(=O)[C@H](C)Cc2ncc(F)cn2)nnc1-c1cnccn1` (single isomer, unassigned) [Example 30.0, (R)-N-(4-(2,6-dimethoxyphenyl)-5-(pyrazin-2-yl)-4H-1,2,4-triazol-3-yl)-1-(5-fluoropyrimidin-2-yl)propane-2-sulfonamide or (S)-N-(4-(2,6-dimethoxyphenyl)-5-(pyrazin-2-yl)-4H-1,2,4-triazol-3-yl)-1-(5-fluoropyrimidin-2-yl)propane-2-sulfonamide], for which the concentration for a half-maximal effect (EC50) stood at 350 nM.
Consider `COc1cnc([C@@H](C)[C@H](C)S(=O)(=O)Nc2nnc(-c3ccn(C)n3)n2-c2c(F)cccc2F)cn1` [Example 230.0, (2S,3R)-N-(4-(2,6-difluorophenyl)-5-(1-methyl-1H-pyrazol-3-yl)-4H-1,2,4-triazol-3-yl)-3-(5-methoxy-2-pyrazinyl)-2-butanesulfonamide], for which the EC50 was found to be 25 nM.
In the case of `COc1cccc(OC)c1-n1c(NS(=O)(=O)[C@@H](C)[C@@H](OC(C)C)c2ncc(C)cn2)nnc1-c1ccn(C)n1` [Example 355.0, (1S,2S)-N-(4-(2,6-dimethoxyphenyl)-5-(1-methyl-1H-pyrazol-3-yl)-4H-1,2,4-triazol-3-yl)-1-isopropoxy-1-(5-methylpyrimidin-2-yl)propane-2-sulfonamide], the EC50 is 0.47 nM.
Turning to “(2R,3S)-N-(4-(2,6-dimethoxyphenyl)-5-(1-methyl-1H-pyrazol-3-yl)-4H-1,2,4-triazol-3-yl)-3-(5-methyl-1-oxido-2-pyrazinyl)-2-butanesulfonamide and (2S,3R)-N-(4-(2,6-dimethoxyphenyl)-5-(1-methyl-1H-pyrazol-3-yl)-4H-1,2,4-triazol-3-yl)-3-(5-methyl-1-oxido-2-pyrazinyl)-2-butanesulfonamide [Example 280.0]”, the concentration giving a half-maximal response (EC50) was 3.5 nM.
With `Cc1cnc([C@@H](C)[C@H](C)S(=O)(=O)Nc2nnc(-c3cnn4c3CCC4)n2-c2c(F)cccc2F)nc1` [Example 483.0, (2S,3R)-N-(4-(2,6-difluorophenyl)-5-(5,6-dihydro-4H-pyrrolo[1,2-b]pyrazol-3-yl)-4H-1,2,4-triazol-3-yl)-3-(5-methylpyrimidin-2-yl)butane-2-sulfonamide], the EC50 came to 5.4 nM.
The value for `COc1cccc(OC)c1-n1c(NS(=O)(=O)C[C@H](O)c2ccc(F)cc2S(C)(=O)=O)nnc1-c1ccn(C)n1` (single isomer, unassigned) [Example 370.0, (R)-N-(4-(2,6-Dimethoxyphenyl)-5-(1-methyl-1H-pyrazol-3-yl)-4H-1,2,4-triazol-3-yl)-2-(4-fluoro-2-(methylsulfonyl)phenyl)-2-hydroxyethanesulfonamide or (S)-N-(4-(2,6-dimethoxyphenyl)-5-(1-methyl-1H-pyrazol-3-yl)-4H-1,2,4-triazol-3-yl)-2-(4-fluoro-2-(methylsulfonyl)phenyl)-2-hydroxyethanesulfonamide] was 3.1 nM; that for `CO[C@H](c1ncc(Cl)cn1)[C@H](C)S(=O)(=O)Nc1nnc(-c2cnn3c2CCC3)n1C1CC1` [Example 478.0] was 11 nM; that for `COc1ccccc1-n1c(NS(=O)(=O)CCc2ccccc2)nnc1-c1cccs1` [Example 238.0, N-(4-(2-methoxyphenyl)-5-(2-thiophenyl)-4H-1,2,4-triazol-3-yl)-2-phenylethanesulfonamide] was 226 nM.
`COc1ncnc(OC)c1-n1c(NS(=O)(=O)[C@@H](C)[C@H](C)c2ncc(Cl)cn2)nnc1-c1nn(C)c2ccc(C)cc12` [Example 433.0, (2S,3R)-3-(5-chloropyrimidin-2-yl)-N-(4-(4,6-dimethoxypyrimidin-5-yl)-5-(1,5-dimethyl-1H-indazol-3-yl)-4H-1,2,4-triazol-3-yl)butane-2-sulfonamide]: the half-maximal effective concentration (EC50) turned out to be 0.84 nM.
With `COC[C@@H](C)n1c(NS(=O)(=O)[C@@H](C)[C@H](OC)c2ncc(Cl)cn2)nnc1-c1ccn(C)n1` [Example 531.0, (1R,2S)-1-(5-chloro-2-pyrimidinyl)-1-methoxy-N-(4-((2R)-1-methoxy-2-propanyl)-5-(1-methyl-1H-pyrazol-3-yl)-4H-1,2,4-triazol-3-yl)-2-propanesulfonamide], the EC50 came to 50 nM.
With `COc1cccc(OC)c1-n1c(NS(=O)(=O)[C@@H](C)[C@H](O)c2cnc(C)cn2)nnc1-c1cc(C)[nH]n1` [Example 347.0, (1R,2S)-N-(4-(2,6-Dimethoxyphenyl)-5-(5-methyl-1H-pyrazol-3-yl)-4H-1,2,4-triazol-3-yl)-1-hydroxy-1-(5-methyl-2-pyrazinyl)-2-propanesulfonamide], the EC50 was 3.8 nM.
On to `CCn1ccc(-c2nnc(NS(=O)(=O)[C@@H](C)[C@H](OC)c3ncc(C)cn3)n2-c2c(OC)cccc2OC)n1` [Example 387.0, (1R,2S)-N-(4-(2,6-Dimethoxyphenyl)-5-(1-ethyl-1H-pyrazol-3-yl)-4H-1,2,4-triazol-3-yl)-1-methoxy-1-(5-methylpyrimidin-2-yl)propane-2-sulfonamide], for which the EC50 was found to be 0.55 nM.
The value for `CC(C)O[C@@H](c1ncc(Cl)cn1)[C@H](C)S(=O)(=O)Nc1nnc(-c2ccn(C)n2)n1C1CC1` [Example 532.0, (1S,2S)-1-(5-chloro-2-pyrimidinyl)-N-(4-cyclopropyl-5-(1-methyl-1H-pyrazol-3-yl)-4H-1,2,4-triazol-3-yl)-1-(2-propanyloxy)-2-propanesulfonamide] was 22 nM; that for `COc1cccc(OC)c1-n1c(NS(=O)(=O)[C@H](C)[C@@H](C)c2cnc(C)cn2)nnc1-c1ccn(C)n1` [Example 281.0, (2R,3S)-N-(4-(2,6-dimethoxyphenyl)-5-(1-methyl-1H-pyrazol-3-yl)-4H-1,2,4-triazol-3-yl)-3-(5-methyl-2-pyrazinyl)-2-butanesulfonamide] was 84 nM; that for `COc1cccc(OC)c1-n1c(NS(=O)(=O)[C@@H](C)[C@H](C)c2ncc(Cl)cn2)nnc1-c1cnn2c1CCC2` [Example 445.0, (2S,3R)-3-(5-chloropyrimidin-2-yl)-N-(5-(5,6-dihydro-4H-pyrrolo[1,2-b]pyrazol-3-yl)-4-(2,6-dimethoxyphenyl)-4H-1,2,4-triazol-3-yl)butane-2-sulfonamide] was 0.089 nM.
The figure for `COc1cccc(OC)c1-n1c(NS(=O)(=O)CCc2ccc(Cl)cc2)nnc1-c1nc(C)cs1` [Example 142.0, 2-(4-chlorophenyl)-N-(4-(2,6-dimethoxyphenyl)-5-(4-methylthiazol-2-yl)-4H-1,2,4-triazol-3-yl)ethanesulfonamide] is 17 nM.

Broadly, the EC50 is the concentration needed to bring the measured effect to its halfway point.

The values above are taken from patent US11046680B1, “Heteroaryl-substituted triazoles as APJ receptor agonists” (priority 2016, dated 2021).
